Reference: PubChem BioAssay AID2060333 (Molecular Pharmacology Branch, DTP, NCI, 2025)
Where “and” joins values, the source holds several entries; their conditions need not be identical. Equal entries are not always repeated.

Tested on: 845751-090-R-J2-PDC tumor spheroid viability
Test: Anticancer human tumor 845751-090-R-J2-PDC patient-derived head and neck squamous carcinoma cell line growth inhibition [IpAb]
Details: spheroids with HUVEC and MSC; for viability, T/C: stronger effect = lower value
Text: Combinatorial screen of targeted agents with ipatasertib and abemaciclib in multi-cell type tumor spheroids
A high-throughput screen of multi-cell type tumor spheroids was designed to identify active combinations of targeted small molecules and ipatasertib or abemaciclib. Complex spheroids include a stromal component modeled by human endothelial cells (HUVEC) and fibroblasts modeled by human mesenchymal stem cells (MSCs). The concentration ranges selected for each drug and investigational agent were based upon clinically achievable concentrations if the clinical Cmax of the agent was known.
Compounds. The drugs and investigational agents: ipatasertib (NSC767898), abemaciclib(NSC768073), selumetinib (NSC741078), trametinib (758246), adavosertib (NSC754352), everolimus (NSC733504), sapanisertib (NSC764658), vemurafenib (NSC761431), venetoclax (NSC766270), copanlisib (NSC809693), apelisib (NSC765974), palbociblib (NSC758247), vemurafenib (NSC761431), dabrafenib (NSC764134), ravoxertinib (NSC781343), BMS-387032 (NSC767048), sotorasib (NSC818433), talazoparib (NSC767125) and afursertib (NSC778305), were obtained from the National Cancer Institute (NCI) Developmental Therapeutics Program Chemical Repository. The FDA-approved anticancer drug set is available from the NCI Developmental Therapeutics Program. […] The stock solutions were prepared in dimethyl sulfoxide (DMSO, Sigma-Aldrich, St. Louis, MO, cat. D2650) at 800-fold the tested concentration and stored at -70 degrees C prior to their use. All drugs and investigational agents were tested over a range starting from a high concentration at or near the clinical Cmax and decreasing in half-log increments. If the clinical Cmax for an agent had not been determined, the highest concentration tested was 10 microM.
NCI60 Cell Culture. NCI60 cell lines were obtained from the NCI Developmental Therapeutics Program Tumor Repository. For each lot of cells, the Repository performed Applied Biosystems AmpFLSTR Identifiler testing with PCR amplification to confirm consistency with the published Identifier STR profile for each cell line. Cells were kept in continuous culture for no more than 20 passages. The optimal seeding densities for each of the cell lines at each time point assessed were determined prior to performing the concentration response studies. Briefly, the NCI60 human tumor lines were grown as monolayers in RPMI 1640 medium supplemented with 10% FBS and 2 mmol/L L-glutamine.
An additional 9 lines were from the NCI60 cell line panel including MDA-MB-231 breast carcinoma, MDA-MB-468 breast carcinoma, MCF7 breast carcinoma, Hs578T breast carcinoma, MALME-3M melanoma, SK-MEL-2 melanoma, SK-OV-3 ovarian carcinoma, DU-145 prostate carcinoma, PC-3 prostate carcinoma, all cell lines along with major genetic alterations are listed on Table 2. Pooled donor human umbilical vein endothelial cells (HUVEC, Lonza, cat. CC-2519) and human mesenchymal stem cells (hMSC, Lonza, cat. PT-2501) were purchased from Lonza (Walkersville, MD).
PDMR cell lines were grown in complete medium (DC medium): Dulbecco's modified Eagle's medium (DMEM)/F12 supplemented with 5% fetal bovine serum (FBS), 2 mM L-glutamine, 100 U/mL penicillin and 100 µg/ml streptomycin, 0.4 µg/ml hydrocortisone, 10 ng/ml epidermal growth factor (EGF) recombinant human protein, 24 µg/mL adenine, and 0.1 mg/mL primocin. During culture from frozen stock vials, PDMR cells were cultured in the same medium containing 10 µM Y-27632 (see Table 3). The PDCs were cultured in complete DMEM/F12 media without 10 microM Y-27632 dihydrochloride for at least two passages prior to the screen. The pooled donor HUVEC and hMSC were cultured in endothelial cell growth medium 2 (PromoCell, Heidelberg, Germany, cat. C-22011) and mesenchymal stem cell growth medium 2 (PromoCell, cat. C-28009), respectively. For all experiments, HUVEC and hMSC were used at passages </=5.
[…]

[1] = curve of first compound, second compound 0.1 µM
[2] = curve of first compound, second compound 0.316 µM
[3] = curve of first compound, second compound 1 µM
[4] = curve of first compound, second compound 3.16 µM
[5] = curve of first compound, second compound 10 µM
[6] = second compound 0.1 µM, first compound 0.0316 µM
[7] = second compound 0.1 µM, first compound 0.1 µM
[8] = second compound 0.1 µM, first compound 0.316 µM
[9] = second compound 0.1 µM, first compound 1 µM
[10] = second compound 0.1 µM, first compound 3.16 µM
[11] = second compound 0.1 µM, first compound 10 µM
[12] = second compound 0.316 µM, first compound 0.0316 µM
[13] = second compound 0.316 µM, first compound 0.1 µM
[14] = second compound 0.316 µM, first compound 0.316 µM
[15] = second compound 0.316 µM, first compound 1 µM
[16] = second compound 0.316 µM, first compound 3.16 µM
[17] = second compound 0.316 µM, first compound 10 µM
[18] = second compound 1 µM, first compound 0.0316 µM
[19] = second compound 1 µM, first compound 0.1 µM
[20] = second compound 1 µM, first compound 0.316 µM
[21] = second compound 1 µM, first compound 1 µM
[22] = second compound 1 µM, first compound 3.16 µM
[23] = second compound 1 µM, first compound 10 µM
[24] = second compound 3.16 µM, first compound 0.0316 µM
[25] = second compound 3.16 µM, first compound 0.1 µM
[26] = second compound 3.16 µM, first compound 0.316 µM
[27] = second compound 3.16 µM, first compound 1 µM
[28] = second compound 3.16 µM, first compound 3.16 µM
[29] = second compound 3.16 µM, first compound 10 µM
[30] = second compound 10 µM, first compound 0.0316 µM
[31] = second compound 10 µM, first compound 0.1 µM
[32] = second compound 10 µM, first compound 0.316 µM
[33] = second compound 10 µM, first compound 1 µM
[34] = second compound 10 µM, first compound 3.16 µM
[35] = second compound 10 µM, first compound 10 µM
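Also: spheroids exposed to compounds for 7 days before readout.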
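For viability, T/C in this document: CTG3D luminescence normalised so that 100% = DMSO vehicle control.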

Compound | IC50 [1] | IC50 [2] | IC50 [3] | IC50 [4] | IC50 [5] | viability, T/C [6] | viability, T/C [7] | viability, T/C [8] | viability, T/C [9] | viability, T/C [10] | viability, T/C [11] | viability, T/C [12] | viability, T/C [13] | viability, T/C [14] | viability, T/C [15] | viability, T/C [16] | viability, T/C [17] | viability, T/C [18] | viability, T/C [19] | viability, T/C [20] | also measured
Cn1nccc1Nc1nccc(-c2ccn(C(CO)c3ccc(Cl)c(F)c3)c(=O)c2)n1 (configuration not stated) + CC(C)NCC(C(=O)N1CCN(c2ncnc3c2C(C)CC3O)CC1)c1ccc(Cl)cc1 | 558 nM | < 31.6 nM | < 31.6 nM | < 31.6 nM | < 31.6 nM | 65.5% | 66.5% | 57.9% | 41.6% | 44.1% | 35.8% | 45.6% | 40.6% | 24.3% | 14.3% | 16% | 17.1% | 28.2% | 23.2% | 18% | viability, T/C [21]: 13.1%; viability, T/C [22]: 9.8%; viability, T/C [23]: 4.51%; viability, T/C [24]: 22.9%; viability, T/C [25]: 16.7%; viability, T/C [26]: 11.5%; viability, T/C [27]: 8.53%; viability, T/C [28]: 4.72%; viability, T/C [29]: 3.12%; viability, T/C [30]: 11.3%; viability, T/C [31]: 7.13%; viability, T/C [32]: 5.99%; viability, T/C [33]: 5.42%; viability, T/C [34]: 3.44%; viability, T/C [35]: 1.71%
Cn1ncc(Cl)c1-c1cc(C(=O)NC(CN)Cc2cccc(F)c2)sc1Cl (configuration not stated) + CC(C)NCC(C(=O)N1CCN(c2ncnc3c2C(C)CC3O)CC1)c1ccc(Cl)cc1 | 188 nM | < 31.6 nM | < 31.6 nM | < 31.6 nM | < 31.6 nM | 84.6% | 59.2% | 33.2% | 37% | 12.1% | 0.32% | 46.6% | 35.4% | 37.3% | 34.4% | 13.6% | 0.51% | 39.3% | 37.9% | 37.2% | viability, T/C [21]: 27.1%; viability, T/C [22]: 8.86%; viability, T/C [23]: 0.24%; viability, T/C [24]: 29%; viability, T/C [25]: 27%; viability, T/C [26]: 26.3%; viability, T/C [27]: 24.2%; viability, T/C [28]: 8.88%; viability, T/C [29]: 0.54%; viability, T/C [30]: 17.5%; viability, T/C [31]: 16.1%; viability, T/C [32]: 24.5%; viability, T/C [33]: 13.5%; viability, T/C [34]: 7.33%; viability, T/C [35]: 0.88%
Cn1cnc2c(F)c(Nc3ccc(Br)cc3Cl)c(C(=O)NOCCO)cc21 | – | – | – | – | – | – | – | – | – | – | – | – | – | – | – | – | – | – | – | – | viability, T/C (compound 0.00949 µM): 107% and 165%; viability, T/C (compound 0.03 µM): 94.5% and 174%; viability, T/C (compound 0.0949 µM): 75% and 136%; viability, T/C (compound 0.3 µM): 82.8% and 125%; viability, T/C (compound 0.949 µM): 80.4% and 122%; viability, T/C (compound 3 µM): 65.8% and 67.1%; IC50 (curve of compound): > 3000 nM
